Key:
Assay in all cases: relative viability (nuclei count vs DMSO), 5 days (fraction); higher = more cells survive
[1] = compound: COC1=C(C=C(C=C1)C2=CC3=NC=CN3C(=N2)NC4=C(C=CC=N4)C(=O)N)OC [BAY61-3606] + Cc1nc(NC(=O)N2CCC[C@H]2C(N)=O)sc1-c1ccnc(C(C)(C)C(F)(F)F)c1 [Alpelisib] (partner 2 µM)
Procedure, shortened: (§1)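 Values are medians from duplicate plates. Each reflects relative viability, defined as the nuclei count of treated wells over that of vehicle wells. Lung cancer cell lines in 1536-well plates were pin-tool dosed one day after seeding with one drug alone or with a fixed anchor-drug dose plus five library-drug doses (not always all listed) in √10 steps, then fixed, stained and imaged at 4× after 5 days.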

[2] = compound: COC1=C(C=C(C=C1)C2=CC3=NC=CN3C(=N2)NC4=C(C=CC=N4)C(=O)N)OC [BAY61-3606] + O=C(CCCCCCC(=O)Nc1ccccc1)NO [Vorinostat] (partner 1 µM)
Procedure, shortened: as §1

[3] = compound: COc1cccc2c1C(=O)c1c(O)c3c(c(O)c1C2=O)C[C@@](O)(C(=O)CO)C[C@@H]3O[C@H]1C[C@H](N)[C@H](O)[C@H](C)O1 [Doxorubicin] + C[C@]1(O)C[C@@H](c2nc(-c3ccc4ccc(-c5ccccc5)nc4c3)c3c(N)nccn32)C1 [Linsitinib] (partner 1 µM)
Procedure, shortened: as §1

[4] = compound: COc1cccc2c1C(=O)c1c(O)c3c(c(O)c1C2=O)C[C@@](O)(C(=O)CO)C[C@@H]3O[C@H]1C[C@H](N)[C@H](O)[C@H](C)O1 [Doxorubicin] + Cc1nc(Nc2ncc(C(=O)Nc3c(C)cccc3Cl)s2)cc(N2CCN(CCO)CC2)n1 [Dasatinib] (partner 0.075 µM)
Procedure, shortened: as §1

UMC-11
relative viability ([1]; first compound 0.02 µM): 1.01
relative viability ([1]; first compound 0.06325 µM): 1.09
relative viability ([1]; first compound 0.2 µM): 1.08
relative viability ([1]; first compound 0.6325 µM): 0.973
relative viability ([1]; first compound 2 µM): 0.912
relative viability ([2]; first compound 0.02 µM): 0.43
relative viability ([2]; first compound 0.06325 µM): 0.385
relative viability ([2]; first compound 0.2 µM): 0.436
relative viability ([2]; first compound 0.6325 µM): 0.465
relative viability ([2]; first compound 2 µM): 0.326
relative viability ([3]; first compound 0.001 µM): 1.1
relative viability ([3]; first compound 0.003162 µM): 1.13
relative viability ([3]; first compound 0.01 µM): 1.09
relative viability ([3]; first compound 0.03162 µM): 0.803
relative viability ([3]; first compound 0.1 µM): 0.875
relative viability ([4]; first compound 0.001 µM): 0.43
relative viability ([4]; first compound 0.003162 µM): 0.47
relative viability ([4]; first compound 0.01 µM): 0.44
relative viability ([4]; first compound 0.03162 µM): 0.446
relative viability ([4]; first compound 0.1 µM): 0.282

From the supplement of paper PMC10307832
